Data: US12145944B2, “Imidazopyrimidines as EED inhibitors and the use thereof” (THE REGENTS OF THE UNIVERSITY OF MICHIGAN, priority 2019, dated 2024)
Like-named read-outs stand apart in the source and are kept apart here.

Tests used:
[1] = test system: KARPAS422 human B cell lymphoma cell; assay: Cell proliferation, KARPAS422, 7 day treatment (WST-8); type: cell-based; details: Homo sapiens, KARPAS-422, 168 h, 7 day treatment, read-out: Karpas Cell line
In short: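 KARPAS422 cells seeded at 2 000-3 000 cells/well and exposed to serially diluted compounds for 7 days at 37 °C, 5% CO2. Growth measured by WST-8 (1-4 h, absorbance 450 nm). Readings normalized to DMSO-treated cells; IC50 from nonlinear regression.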

Pfeiffer cell line = assay: Anti-proliferative activity, Pfeiffer cell line, 7 day treatment; type: cell-based; details: Homo sapiens, 168 h, 7 day treatment, read-out: Pfeiffer Cell line
Description: “N/A” stands for “not assessed”.
To assess the effect of PRC2 inhibition on cell growth, cells were seeded in 96-well cell culture plates at a density of 2 000-3 000 cells/well in 200 µL of culture medium, and treated with serially diluted compounds for 7 days at 37° C. in an atmosphere of 5% CO2. Cell growth was evaluated by a […] WST-8 assay (Dojindo Molecular Technologies) using a Tecan Infinite M1000 multimode microplate reader (Tecan, Morrisville, NC). The WST-8 reagent was added to the plate, incubated for 1-4 h, and read at 450 nm. The readings were normalized to the DMSO-treated cells, and the IC50 was calculated by nonlinear regression analysis using GraphPad Prism 6 software

[2] = anti-proliferative IC50 class, Karpas 422 cell line
[3] = anti-proliferative IC50 class, Pfeiffer cell line
[4] = anti-proliferative IC50, Karpas 422 cell line
[5] = anti-proliferative IC50, Pfeiffer cell line

Compound | IC50 [1, 2] [nM] | IC50 (Pfeiffer cell line; [3]) [nM] | IC50 [1, 4] [nM] | IC50 (Pfeiffer cell line; [5]) [nM]
O=C1c2ncn3c(NCc4c(F)ccc5c4CCO5)ncc(c23)-c2ccc(C3CCOCC3)nc2CN1CC(F)(F)F [E 45, 12-(((5-fluoro-2,3-dihydrobenzofuran-4-yl)methyl)amino)-7-(tetrahydro-2H-pyran-4-yl)-4-(2,2,2-trifluoroethyl)-4,5-dihydro-3H-2,4,6,11,12a-pentaazabenzo[4,5]cycloocta[1,2,3-cd]inden-3-one] | < 10 | < 10 | – | –
CC(C)(C)c1cc2c(cn1)-c1cnc(NCc3c(F)ccc4c3CCO4)n3cnc(c13)C(=O)N(CC(F)(F)F)C2 [E 46, 7-(tert-butyl)-12-(((5-fluoro-2,3-dihydrobenzofuran-4-yl)methyl)amino)-4-(2,2,2-trifluoroethyl)-4,5-dihydro-3H-2,4,8,11,12a-pentaazabenzo[4,5]cycloocta[1,2,3-cd]inden-3-one] | < 10 | < 10 | – | –
O=C1c2ncn3c(NCc4c(F)ccc5c4CCO5)ncc(c23)-c2ccc(C3COCCO3)nc2CN1CC(F)(F)F (centres unmarked) [E 48, 7-(1,4-dioxan-2-yl)-12-(((5-fluoro-2,3-dihydrobenzofuran-4-yl)methyl)amino)-4-(2,2,2-trifluoroethyl)-4,5-dihydro-3H-2,4,6,11,12a-pentaazabenzo[4,5]cycloocta[1,2,3-cd]inden-3-one] | < 10 | < 10 | – | –
O=C1c2ncn3c(NCc4c(F)ccc5c4CCO5)ncc(c23)-c2ccc(C3CCC3)nc2CN1CC(F)(F)F [E 52, 7-cyclobutyl-12-(((5-fluoro-2,3-dihydrobenzofuran-4-yl)methyl)amino)-4-(2,2,2-trifluoroethyl)-4,5-dihydro-3H-2,4,6,11,12a-pentaazabenzo[4,5]cycloocta[1,2,3-cd]inden-3-one] | < 10 | < 10 | – | –
Cc1cccc(F)c1CNc1ncc2c3c(ncn13)COCc1ncccc1-2 [compound 1, N-(2-fluoro-6-methylbenzyl)-3H,5H-4-oxa-2,6,11,12a-tetraazabenzo[4,5]cycloocta[1,2,3-cd]inden-12-amine] | – | – | > 100 | > 100
CS(=O)(=O)c1ccc2c(c1)NC(=O)c1ncn3c(NCc4c(F)ccc5c4CCO5)ncc-2c13 [compound 5, 11-(((5-fluoro-2,3-dihydrobenzofuran-4-yl)methyl)amino)-6-(methylsulfonyl)-2,4,10,11a-tetraazadibenzo[cd,f]azulen-3(4H)-one] | – | – | 32.2 | 18.1
O=C1OCc2cc(F)ccc2-c2cnc(NCc3c(F)ccc4c3CCO4)n3cnc1c23 [compound 7, 7-fluoro-12-(((5-fluoro-2,3-dihydrobenzofuran-4-yl)methyl)amino)-3H,5H-4-oxa-2,11,12a-triazabenzo[4,5]cycloocta[1,2,3-cd]inden-3-one] | – | – | 3.35 | 0.68
O=C1OCc2cc(C(F)(F)F)ccc2-c2cnc(NCc3c(F)ccc4c3CCO4)n3cnc1c23 [compound 8, 12-(((5-fluoro-2,3-dihydrobenzofuran-4-yl)methyl)amino)-7-(trifluoromethyl)-3H,5H-4-oxa-2,11,12a-triazabenzo[4,5]cycloocta[1,2,3-cd]inden-3-one] | – | – | 2.91 | 0.57
O=C1OCc2cc(F)ccc2-c2cnc(NCc3cccc4c3CCO4)n3cnc1c23 [compound 9, 12-(((2,3-dihydrobenzofuran-4-yl)methyl)amino)-7-fluoro-3H,5H-4-oxa-2,11,12a-triazabenzo[4,5]cycloocta[1,2,3-cd]inden-3-one] | – | – | 5.6 | 1.81
O=C1OCc2c(F)cccc2-c2cnc(NCc3c(F)ccc4c3CCO4)n3cnc1c23 [compound 11, 6-fluoro-12-(((5-fluoro-2,3-dihydrobenzofuran-4-yl)methyl)amino)-3H,5H-4-oxa-2,11,12a-triazabenzo[4,5]cycloocta[1,2,3-cd]inden-3-one] | – | – | 4.61 | 1.22
O=C1OCc2cc(C(F)(F)F)ncc2-c2cnc(NCc3c(F)ccc4c3CCO4)n3cnc1c23 [compound 13, 12-(((5-fluoro-2,3-dihydrobenzofuran-4-yl)methyl)amino)-7-(trifluoromethyl)-3H,5H-4-oxa-2,8,11,12a-tetraazabenzo[4,5]cycloocta[1,2,3-cd]inden-3-one] | – | – | 9.03 | 1.99
O=C1OCc2nc(C(F)(F)F)ccc2-c2cnc(NCc3c(F)ccc4c3CCO4)n3cnc1c23 [compound 14, 12-(((5-fluoro-2,3-dihydrobenzofuran-4-yl)methyl)amino)-7-(trifluoromethyl)-3H,5H-4-oxa-2,6,11,12a-tetraazabenzo[4,5]cycloocta[1,2,3-cd]inden-3-one] | – | – | 3.49 | 0.36
O=C1NCc2cc(F)ccc2-c2cnc(NCc3c(F)ccc4c3CCO4)n3cnc1c23 [compound 17, 7-fluoro-12-(((5-fluoro-2,3-dihydrobenzofuran-4-yl)methyl)amino)-4,5-dihydro-3H-2,4,11,12a-tetraazabenzo[4,5]cycloocta[1,2,3-cd]inden-3-one] | – | – | 20.5 | 4.17

More lines, now with the values ahead:

IC50 [1, 2] [nM] | IC50 (Pfeiffer cell line; [3]) [nM] | IC50 [1, 4] [nM] | IC50 (Pfeiffer cell line; [5]) [nM] | Compound
< 10 | < 10 | – | – | CC(C)c1ccc2c(n1)CN(CC(F)F)C(=O)c1ncn3c(NCc4c(F)ccc5c4CCO5)ncc-2c13 [E 47, 4-(2,2-difluoroethyl)-12-(((5-fluoro-2,3-dihydrobenzofuran-4-yl)methyl)amino)-7-isopropyl-4,5-dihydro-3H-2,4,6,11,12a-pentaazabenzo[4,5]cycloocta[1,2,3-cd]inden-3-one]
< 10 | < 10 | – | – | O=C1c2ncn3c(NCc4c(F)ccc5c4CCO5)ncc(c23)-c2ccc(CC3COCCO3)nc2CN1CC(F)(F)F (centres unmarked) [E 49, 7-((1,4-dioxan-2-yl)methyl)-12-(((5-fluoro-2,3-dihydrobenzofuran-4-yl)methyl)amino)-4-(2,2,2-trifluoroethyl)-4,5-dihydro-3H-2,4,6,11,12a-pentaazabenzo[4,5]cycloocta[1,2,3-cd]inden-3-one]
< 10 | < 10 | – | – | CC(C)(C)c1ccc2c(n1)CN(CC(F)(F)F)C(=O)c1ncn3c(NCc4c(F)ccc5c4CCO5)ncc-2c13 [E 50, 7-(tert-butyl)-12-(((5-fluoro-2,3-dihydrobenzofuran-4-yl)methyl)amino)-4-(2,2,2-trifluoroethyl)-4,5-dihydro-3H-2,4,6,11,12a-pentaazabenzo[4,5]cycloocta[1,2,3-cd]inden-3-one]
– | – | 1.98 | 0.22 | O=C1OCc2ccccc2-c2cnc(NCc3c(F)ccc4c3CCO4)n3cnc1c23 [compound 6, 12-(((5-fluoro-2,3-dihydrobenzofuran-4-yl)methyl)amino)-3H,5H-4-oxa-2,11,12a-triazabenzo[4,5]cycloocta[1,2,3-cd]inden-3-one]
– | – | 15.8 | 2.93 | O=C1OCc2ncccc2-c2cnc(NCc3c(F)ccc4occc34)n3cnc1c23 [compound 10, 12-(((5-fluorobenzofuran-4-yl)methyl)amino)-3H,5H-4-oxa-2,6,11,12a-tetraazabenzo[4,5]cycloocta[1,2,3-cd]inden-3-one]
– | – | 4.36 | 1.25 | O=C1NCc2ccccc2-c2cnc(NCc3c(F)ccc4c3CCO4)n3cnc1c23 [compound 15, 12-(((5-fluoro-2,3-dihydrobenzofuran-4-yl)methyl)amino)-4,5-dihydro-3H-2,4,11,12a-tetraazabenzo[4,5]cycloocta[1,2,3-cd]inden-3-one]
